The results in this text go back to PMC9423655, “Huntington’s disease phenotypes are improved via mTORC1 modulation by small molecule therapy” (PLoS ONE, 2022).

One data set deals with SesnTKO HEK293T cells. Kind of data set: mTORC1 activation (p70S6K1) in HEK293T cells null for all three Sestrin isoforms. It is filed as cell-based. The note with it: leucine-starved 50 minutes, treatment 10 minutes. Here is the method: All cell lines were cultured in DMEM (Corning, #MT10013CV) supplemented with 10% heat-inactivated FBS (Gibco, #16140–071). All cell lines were maintained at 37°C and 5% CO2. For amino acid starvation, cells were rinsed once with and incubated Amino acid-free RPMI (US Biologicals, #R8999-04A) supplemented with 10% dialyzed FBS (Gibco, #26400044) for 50 min followed by treatment with NV-5297, leucine, or vehicle for 10 minutes. For leucine starvation, cells were rinsed once with and incubated in leucine-free DMEM (AthenaES, #0420) supplemented with 10% dialyzed FBS (Gibco, #26400044) for 50 minuted followed by treatment with NV-5297, leucine, or vehicle for 10 minutes.
To ascertain if Sestrins and the GATOR pathway are required for NV-5297 activity, we tested mTORC1 activation in cells null for either all three Sestrin isoforms [SesnTKO] or for the GATOR1 component Npr13 [Npr13KO] [44]. […]
(A) Activation of the mTORC1 pathway by NV-5297. […] Representative immunoblots of ^T389pS6K1 and quantification of the normalized level of ^T389pS6K1 from 8 independent experiments (F) show TORC1 activity in unedited HEK-293T cells, HEK-293T cells deficient for Sestrin 1 (Sesn1), 2 (Sesn2) and 3 (Sesn3) (D) or HEK-293T cells deficient for the GATOR1 component Nprl3 (E) after 50 minutes leucine starvation followed by the addition of vehicle, NV-5297 or leucine for 10 minutes. […]

Data set [1] in a line: Pharmacokinetic analysis of NV-5297 in mice (i.v. and oral, LC-MS/MS). The format is in vivo. To be noted: C57BL/6 mice. As to the method: […] Mice were given free access to food and water for both i.v. and orally dosed groups. After dosing, tail-vein blood was collected at the indicated time points into K2EDTA tubes and centrifuged at 2,000g for 5 minutes to collect serum. Levels of NV-5297 were quantified via LC-MS/MS. WinNonlin V 6.2 statistics software (Pharsight Corporation, California, USA) was used to generate pharmacokinetics parameters using non-compartmental model.
PK parameters of NV-5297 after an IV dose at 1 mg/kg
PK parameters Unit Estimate
PK parameters of NV-5297 after an OD dose at 5 mg/kg

For data set [2], the system named is mTORC1 pathway (pS6). Kind of data set: Isoprenaline cardiac stress: pS6 immunoblot of striatum and heart. The format is in vivo. The note with it: N171-82Q mice under isoprenaline cardiac stress, 1 hour after oral dosing 160 mg/kg. As to the method:
(§1) Specific regions of the brain and heart were homogenized using a Next Advance Bullet Blender Storm in Lysis Buffer (Cell lysis buffer: 1% Triton X-100, 50 mM HEPES pH 7.4, 100 mM sodium chloride, 2 mM EDTA, 10 mM Beta-glycerophosphate, 10 mM Sodium pyrophosphate, and 1 protease inhibitor) at 4°C. Lysates were cleared by centrifugation at 13,200 rpm at 4°C for 10 minutes. Equal amounts of total protein from each sample were denatured and, resolved by SDS-PAGE. Membranes were imaged using the LI-COR imaging system. Proteins levels are normalized to tubulin, actin or GAPDH levels and further normalized to vehicle treated mice for each tissue.
Fig 8 mTORC1 pathway activation following NV-5297 dosing and cardiac stress in the striatum but not heart. Representative immunoblot (left panels) of phosphorylated S6 (^S240/244pS6) and quantification of normalized level (right panels) for homogenized heart (A) and striatum (B) isolated 1 hour after oral dosing with NV-5297 (160 mg/kg) with a saline (n = 10) or isoprenaline (n = 6) implant or treated with vehicle and an isoprenaline implant (n = 6) normalized to loading control levels and further normalized to vehicle treated mice with a saline implant (n = 9). Data are presented as mean ± SEM. *P ≤ 0.05, **P ≤ 0.01, ***P ≤ 0.001 (Mixed-effects model with Sidak’s multiple comparisons test).

Data set [3] relates to mTORC1 pathway (pS6). Description: pS6 immunoblot of tissues after one oral dose in C57BL/6 mice. The format is in vivo. The note with it: single oral 160 mg/kg. As to the method:
as §1
Fig 1 NV-5297 is a leucine analog activating the mTORC1 pathway in the brain and peripheral tissues. (A) NV-5297 chemical structure. Representative immunoblots of phosphorylated S6 (^S240/244pS6) from homogenized tissues from C57BL/6 mice orally dosed once with NV-5297 (160 mg/kg) and sacrificed 1 hour later (B) and quantification of the immunoblots normalized to loading controls and vehicle treated mice (n = 10 per treatment) (C). […]

The mark [4] stands for this setting: male, mouse, serum, IV dose at 1 mg/kg.
The mark [5] stands for this setting: male, mouse, serum, OD (oral) dose at 5 mg/kg.

Read-outs that look alike come from different tables or passages of the source.

For `CC(C)(C[C@H](N)C(=O)O)C(F)(F)F` [NV-5297, (S)-2-amino-5,5,5-trifluoro-4,4-dimethylpentanoic acid], the p70S6K1 levels result in the data set with SesnTKO HEK293T cells is on record as “remained unchanged”. Besides, the peak concentration (Cmax) in data set [1] (OD (oral) dose at 5 mg/kg) was 2893 ng/mL. The bioavailability in data set [1] (male, mouse, serum, po, 160 mg/kg, refers to S1 Table, read-out: oral bioavailability) worked out at 100%; in data set [1] (male, mouse, serum, OD (oral) dose at 5 mg/kg vs IV 1 mg/kg, read-out: F (bioavailability)), 104%. Further, the half-life in data set [1] (male, mouse, serum, oral, 160 mg/kg, refers to S1 Table, read-out: half-life (converted)) was around 3 h; in data set [1] (male, mouse, serum, IV dose at 1 mg/kg, read-out: Terminal T1/2 (converted)) it was 1.45 h; in data set [1] (male, mouse, serum, OD (oral) dose at 5 mg/kg, read-out: Terminal T1/2 (converted)), 2.86 h. The Tmax in data set [1] (male, mouse, serum, oral, 160 mg/kg, refers to S1 Table, read-out: time to maximal concentration (tmax) (converted)) is 0.5 h; in data set [1] (male, mouse, serum, OD (oral) dose at 5 mg/kg, read-out: Tmax) it was 0.5 h. The results for the AUC(0-inf) in data set [1] (setting [4]) and in data set [1] (setting [5]) were 1240 ng·h/mL and 6470 ng·h/mL, respectively. The AUC(0-t) in data set [1] (setting [4]) was determined as 1220 ng·h/mL; in data set [1] (setting [5]), 6460 ng·h/mL. Further, the MRT inf in data set [1] (setting [4]) was 1.56 h. Moreover, the clearance in data set [1] (setting [4]) is 13.3 mL/min/kg. Also, the Vd in data set [1] (male, mouse, serum, IV dose at 1 mg/kg, read-out: Vss) was found to be 1.26 L/kg. In the data set with mTORC1 pathway (pS6) [2], the “pS6/S6 ratio in heart” value is listed as “strong trend toward increased ratios”. Also, the “pS6/S6 ratio in striatum” value in the data set with mTORC1 pathway (pS6) [2] is given as “increased pS6/S6 ratio”. For the same compound, in the data set on mTORC1 pathway (pS6) [3] (sacrificed 1 hour later), the “pS6 in brain regions relative to controls” value was “increased pS6 in all regions sampled”. Also, the “pS6 in peripheral tissues relative to vehicle” value in the data set on mTORC1 pathway (pS6) [3] (tissues collected 1 hour later) is “increased pS6”.
